Measured values reported in patent US7205436B2, “Process for manufacture of quaternary ammonium tosylate salts of cinnamidoalkylamines and / or benzamidoalkylamines” (Galaxy Surfactants Limited, priority 2003, dated 2007).

Experiment: UV absorption: molar extinction coefficient in methanol
Type: physicochemical
Settings: at λmax 310 nm in methanol

- molar extinction coefficient, ε: 25,000
SMILES: CCCCCCCCCCCC[N+](C)(C)CCCNC(=O)C=Cc1ccc(OC)cc1.Cc1ccc(S(=O)(=O)[O-])cc1 [Example I, p-methoxy cinnamidopropyldimethyllauryl ammonium tosylate]
